# Results from patent US20060079453A1, “Hla binding peptides and their uses” (priority 2002, published 2006).
# No end group written: not given here.
# Assays:
# Experiment in all cases: biochemical
# Assay type in all cases: binding
# HLA-DR DRB1*1302 (DR13) = HLA-DR DRB1*1302 (DR13) (Homo sapiens, UniProt P01903+P01911, A100E/A169T/K41T/L162R/M171V/P40S/Q125H/Q178H/Q39Y/Q99D/R42S/S66N/T262R/V115G/W38E/Y61H); conditions: DRBI *1302
# HLA-DR DRB1*0301 (DR3) = HLA-DR DRB1*0301 (DR3) (Homo sapiens, UniProt P01903+P01911, A100K/A102G/A103R/A169T/F55Y/I96L/K41T/L162R/M171V/P40S/Q125H/Q178H/Q39Y/R42S/S66N/T106N/T262R/W38E/Y61H)
# HLA-DR DRB1*1101 (DR11) = HLA-DR DRB1*1101 (DR11) (Homo sapiens, UniProt P01903+P01911, A100R/A169T/A87E/I96F/K41T/L162R/M171V/P40S/Q125H/Q178H/Q39Y/Q99D/R42S/S66Y/T262R/V115G/W38E); conditions: DRB1 *1101
# HLA-DR DRB1*0101 (DR1) = HLA-DR DRB1*0101 (DR1) (Homo sapiens, UniProt P01903+P01911, A100R/D57E/F55L/F60I/F76Y/I96L/L162R/M171V/P40L/Q125E/R42F/V115G/Y59C); conditions: DRB1 *0101
# HLA-DR DRB5*0101 (DR51) = HLA-DR DRB5*0101 (DR51) (Homo sapiens, UniProt P01903+Q30154); conditions: DRB5 *0101
# HLA-DR DRB1*0701 (DR7) = HLA-DR DRB1*0701 (DR7) (Homo sapiens, UniProt P01903+P01911, A100R/A102G/A103Q/D57E/D86V/E43K/F76Y/K127E/L162R/M171V/P40G/Q125H/Q99D/R33Q/R42Y/R54Q/S133A/S66F/T210M/V115G/Y107V/Y59L/Y89S); conditions: DRB1 *0701
# HLA-DR DRB1*0901 (DR9) = HLA-DR DRB1*0901 (DR9) (Homo sapiens, UniProt P01903+P01911, A100R/A103E/D57H/D86V/F55Y/F60I/F76Y/I96F/K127E/L162R/M171V/P40D/Q125H/Q99R/R33Q/R42F/S133A/S66N/T210M/V115G/W38K/Y107V/Y59G/Y89S); conditions: DRB1 *0901
# HLA-DR DRB1*0401 (DR4) = HLA-DR DRB1*0401 (DR4) (Homo sapiens, UniProt P01903+P01911, A100K/A169T/F76Y/I96L/K127E/L162R/M171V/N62H/P40V/Q125Y/R42H/S133A/S149N/S66Y/V115G/V209L/W38E); conditions: DRB1 *0401
# HLA-DR DRB1*1501 (DR15) = HLA-DR DRB1*1501 (DR15) (Homo sapiens, UniProt P01903+P01911); conditions: DRBI *1501
# HLA-DR DRB3*0101 (DR52) = HLA-DR DRB3*0101 (DR52) (Homo sapiens, UniProt P01903+P79483)
# HLA-DR DRB4*0101 (DR53) = HLA-DR DRB4*0101 (DR53) (Homo sapiens, UniProt P01903+P13762, G164S); conditions: DRB4 *0101
# HLA-DR DRB1*0802 (DR8) = HLA-DR DRB1*0802 (DR8) (Homo sapiens, UniProt P01903+P01911, A100R/A103L/A169T/F76Y/H45Y/I96F/K41T/L162R/M171V/P40S/Q125H/Q178H/Q39Y/Q99D/R218S/R42G/S66Y/V115G/W38E)
# Chain of HLA-DR DRB1*1101 (DR11) (P01903 26-254 limits assumed, other chains not shown): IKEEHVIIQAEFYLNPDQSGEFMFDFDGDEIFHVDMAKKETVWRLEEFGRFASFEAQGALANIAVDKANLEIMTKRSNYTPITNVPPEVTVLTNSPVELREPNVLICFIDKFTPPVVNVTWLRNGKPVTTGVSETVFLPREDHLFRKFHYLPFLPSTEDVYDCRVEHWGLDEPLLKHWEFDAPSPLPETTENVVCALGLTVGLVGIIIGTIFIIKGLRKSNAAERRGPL
# Chain of HLA-DR DRB1*0301 (DR3) (P01903 26-254 limits assumed, other chains not shown): as above
# Chain of HLA-DR DRB1*1302 (DR13) (P01903 26-254 limits assumed, other chains not shown): as above
Compound,IC50 (HLA-DR DRB1*1302 (DR13)),IC50 (HLA-DR DRB1*0301 (DR3)),IC50 (HLA-DR DRB1*1101 (DR11)),IC50 (HLA-DR DRB1*0101 (DR1)),IC50 (HLA-DR DRB5*0101 (DR51)),IC50 (HLA-DR DRB1*0701 (DR7)),IC50 (HLA-DR DRB1*0901 (DR9)),IC50 (HLA-DR DRB1*0401 (DR4)),IC50 (HLA-DR DRB1*1501 (DR15)),IC50 (HLA-DR DRB3*0101 (DR52)),IC50 (HLA-DR DRB4*0101 (DR53)),IC50 (HLA-DR DRB1*0802 (DR8))
RNFYVINRLTGYLRN,9.4 nM,2200 nM,55 nM,1.7 nM,5.6 nM,527 nM,7600 nM,219 nM,18 nM,689 nM,–,–
GNEIFNTSLFEPPPP,2800 nM,–,> 40000 nM,20400 nM,> 200000 nM,> 35700 nM,–,> 20000 nM,> 91000 nM,> 13200 nM,835 nM,> 163000 nM
CC[C@H](C)[C@H](NC(=O)[C@H](Cc1c[nH]c2ccccc12)NC(=O)[C@@H](NC(=O)[C@@H](N)C(C)C)[C@@H](C)O)C(=O)NCC(=O)N[C@@H](C)C(=O)N[C@@H](C)C(=O)N1CCC[C@H]1C(=O)N[C@@H](CC(C)C)C(=O)N[C@H](C(=O)N[C@@H](CC(C)C)C(=O)N[C@@H](CO)C(=O)N[C@@H](CCCNC(=N)N)C(=O)N[C@H](C(=O)N[C@H](C(=O)O)C(C)C)[C@@H](C)CC)[C@@H](C)CC,2340 nM,> 81800 nM,1780 nM,8.1 nM,–,195 nM,82 nM,8000 nM,–,> 10700 nM,88 nM,–
CC[C@H](C)[C@H](N)C(=O)N[C@@H](CC(C)C)C(=O)N[C@@H](CC(C)C)C(=O)N[C@@H](Cc1c[nH]c2ccccc12)C(=O)N[C@@H](CCC(N)=O)C(=O)N1CCC[C@H]1C(=O)N[C@H](C(=O)N1CCC[C@H]1C(=O)N[C@H](C(=O)N[C@@H](Cc1c[nH]cn1)C(=O)N[C@H](C(=O)N[C@H](C(=O)N1CCC[C@H]1C(=O)N[C@@H](CC(C)C)C(=O)N[C@@H](CO)C(=O)O)C(C)C)[C@@H](C)O)C(C)C)[C@@H](C)CC,1110 nM,> 81800 nM,2340 nM,45 nM,28800 nM,19 nM,131 nM,170 nM,65 nM,> 8830 nM,712 nM,–
CC[C@H](C)[C@H](NC(=O)CNC(=O)[C@H](Cc1ccc(O)cc1)NC(=O)[C@H](CC(C)C)NC(=O)[C@H](CO)NC(=O)[C@H](CC(C)C)NC(=O)[C@H](CC(C)C)NC(=O)[C@H](CO)NC(=O)[C@H](CC(C)C)NC(=O)[C@H](CCC(=O)O)NC(=O)[C@H](CO)NC(=O)[C@@H](N)CC(C)C)C(=O)N[C@@H](Cc1c[nH]cn1)C(=O)N[C@@H](CCCCN)C(=O)N[C@@H](CCC(N)=O)C(=O)O,–,> 81800 nM,1660 nM,482 nM,7.3 nM,20900 nM,1450 nM,1550 nM,45 nM,> 13000 nM,79 nM,–
CC[C@H](C)[C@H](NC(=O)CNC(=O)[C@H](Cc1ccc(O)cc1)NC(=O)[C@H](CC(C)C)NC(=O)[C@H](CO)NC(=O)[C@H](CC(C)C)NC(=O)[C@H](CC(C)C)NC(=O)[C@H](CO)NC(=O)[C@H](CC(C)C)NC(=O)[C@H](CCC(=O)O)NC(=O)[C@H](CO)NC(=O)[C@H](CC(C)C)NC(=O)[C@H](CCC(=O)O)NC(=O)[C@H](CCCNC(=N)N)NC(=O)[C@@H](N)CC(C)C)C(=O)O,3220 nM,–,6960 nM,655 nM,5180 nM,4010 nM,–,371 nM,235 nM,> 15000 nM,544 nM,9370 nM
CC[C@H](C)[C@H](NC(=O)[C@H](Cc1c[nH]cn1)NC(=O)[C@H](CCSC)NC(=O)[C@H](CCCCN)NC(=O)[C@@H](NC(=O)[C@H](CCCCN)NC(=O)[C@H](CCC(N)=O)NC(=O)[C@@H](NC(=O)[C@H](CO)NC(=O)[C@H](Cc1ccccc1)NC(=O)[C@H](CC(N)=O)NC(=O)CNC(=O)[C@@H](N)[C@@H](C)O)[C@@H](C)O)C(C)C)C(=O)N[C@@H](Cc1c[nH]cn1)C(=O)N[C@@H](CO)C(=O)O,6190 nM,–,11900 nM,11200 nM,1930 nM,9410 nM,1450 nM,–,–,> 11800 nM,508 nM,–
ADKIYSISMKHPQEM,4960 nM,–,–,–,–,4100 nM,–,5310 nM,8270 nM,> 21900 nM,3550 nM,1140 nM
CC[C@H](C)[C@H](NC(=O)[C@H](CC(N)=O)NC(=O)[C@H](CCC(=O)O)NC(=O)[C@H](C)NC(=O)[C@H](CCCCN)NC(=O)[C@H](CC(C)C)NC(=O)[C@H](CCC(=O)O)NC(=O)[C@H](CC(=O)O)NC(=O)[C@@H](N)CC(C)C)C(=O)N[C@@H](CCCCN)C(=O)N[C@@H](CCCCN)C(=O)N[C@@H](Cc1ccccc1)C(=O)N[C@@H](CC(C)C)C(=O)N[C@@H](Cc1ccc(O)cc1)C(=O)N[C@@H](CC(N)=O)C(=O)O,–,–,324 nM,1140 nM,150 nM,7470 nM,12800 nM,4840 nM,–,548 nM,788 nM,–
CC(C)C[C@H](NC(=O)CNC(=O)[C@H](CC(N)=O)NC(=O)[C@H](Cc1ccc(O)cc1)NC(=O)[C@@H](NC(=O)[C@H](CC(=O)O)NC(=O)[C@@H](N)CC(C)C)C(C)C)C(=O)N[C@@H](CC(C)C)C(=O)N1CCC[C@H]1C(=O)N1CCC[C@H]1C(=O)N[C@@H](Cc1ccc(O)cc1)C(=O)N[C@@H](C)C(=O)N[C@@H](CO)C(=O)N[C@@H](CS)C(=O)N[C@@H](Cc1c[nH]cn1)C(=O)O,> 35000 nM,–,–,15 nM,25800 nM,> 83300 nM,31300 nM,348 nM,3030 nM,> 15000 nM,> 10900 nM,–
LLYTFRKDMDKVETF,> 14500 nM,23900 nM,7900 nM,> 18000 nM,–,53400 nM,> 59500 nM,10600 nM,886 nM,941 nM,–,–
CC[C@H](C)[C@H](N)C(=O)N[C@@H](Cc1ccc(O)cc1)C(=O)N[C@@H](CO)C(=O)N[C@H](C(=O)N[C@@H](CO)C(=O)N[C@@H](CCSC)C(=O)N[C@@H](CCCCN)C(=O)N[C@@H](Cc1c[nH]cn1)C(=O)N1CCC[C@H]1C(=O)N[C@@H](CCC(N)=O)C(=O)N[C@@H](CCC(=O)O)C(=O)N[C@@H](CCSC)C(=O)N[C@@H](CCCCN)C(=O)N[C@H](C(=O)N[C@@H](Cc1ccc(O)cc1)C(=O)O)[C@@H](C)O)[C@@H](C)CC,> 35000 nM,–,213 nM,8450 nM,2590 nM,–,–,16000 nM,–,> 21900 nM,5360 nM,1360 nM
CSCC[C@H](NC(=O)[C@H](CC(=O)O)NC(=O)[C@H](Cc1ccc(O)cc1)NC(=O)[C@H](CC(C)C)NC(=O)[C@@H]1CCCN1C(=O)[C@H](Cc1c[nH]cn1)NC(=O)[C@@H]1CCCN1C(=O)[C@H](Cc1ccccc1)NC(=O)[C@H](CO)NC(=O)[C@H](Cc1c[nH]cn1)NC(=O)[C@H](CO)NC(=O)[C@@H](NC(=O)[C@H](CCC(N)=O)NC(=O)[C@H](Cc1ccccc1)NC(=O)[C@@H](N)C(C)C)C(C)C)C(=O)O,83 nM,> 75000 nM,–,16 nM,–,51 nM,17 nM,25 nM,2400 nM,23400 nM,> 12500 nM,–
